In ChEMBL document CHEMBL1150843, “Hortein, a new natural product from the fungus Hortaea werneckii associated with the sponge Aplysina aerophoba” (J Nat Prod, 2001):
The source made the active and inactive calls.

What was measured:
Type in all cases: functional, organism-based
Staphylococcus aureus = assay: Antibacterial activity against Staphylococcus aureus ATCC 25923 after 4 days by serial dilution test
Escherichia coli = assay: Antibacterial activity against Escherichia coli HB101 after 4 days by serial dilution test
Spodoptera littoralis = assay: Insecticidal activity against Spodoptera littoralis larvae administered through artificial diet by chronic feeding assay
Candida albicans = assay: Antifungal activity against Candida albicans after 4 days by serial dilution test
Bacillus subtilis = assay: Antibacterial activity against Bacillus subtilis 168 after 4 days by serial dilution test; conditions: subsp. subtilis str. 168

Measured: Activity

O=C1CCC(=O)c2c1c(O)c(O)c1c2-c2ccc(O)c3c(O)ccc-1c23
inactive: all assays above
